Read-outs that look alike come from different tables or passages of the source.
Tests used:
[1] = system: thyroid hormone receptor (endogenous TRα and TRβ); assay: GH3-TRE-Ag primary qHTS, luciferase reporter, agonist mode (TOX21_TR_LUC_GH3_Agonist, aeid 803); type: cell-based, rat; conditions: for GH3-TRE-Ag AC50 hitc: hit call from tcpl; for AC50: read-out: GH3-TRE-Ag AC50
[2] = target: T1, human TRβ ligand-binding domain (Homo sapiens, UniProt P10828); assay: TRb-coa LanthaScreen TR-FRET coactivator (SRC-2 peptide) recruitment, agonist (TOX21_TRB_COA_Agonist_Followup_ratio, aeid 2244); type: biochemical; parameters: host or cells: GeneBLAzer UAS-bla HEK 293T; conditions: for TRb-coa hitc: hit call from tcpl; for Emax: read-out: EMax (% of Control) trb-coa-agonist-followup-1
T1 sequence (P10828 217-461 limits assumed): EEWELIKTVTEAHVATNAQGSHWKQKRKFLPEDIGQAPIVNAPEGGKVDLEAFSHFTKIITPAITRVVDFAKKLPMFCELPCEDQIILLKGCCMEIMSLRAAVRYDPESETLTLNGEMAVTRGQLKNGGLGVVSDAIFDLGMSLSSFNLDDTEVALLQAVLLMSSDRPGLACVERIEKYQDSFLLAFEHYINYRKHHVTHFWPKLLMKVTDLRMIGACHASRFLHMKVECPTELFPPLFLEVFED

[3] = system: thyroid hormone receptor (TR); assay: Classification of TR actives across characterization assays (TR-Ag / RXR-Ag; TR model binary); parameters: key to Categorization Code: FP, false positive; conditions: TR agonist characterization
From the text: Active rate comparison between receptors. […]; [Kleinstreuer et al. 2017]). We first removed chemicals classified as pharmaceuticals because these sets of chemicals are biased toward drugs targeting estrogen receptors and androgen receptors. […]. For TR, we cross-referenced these same chemicals for testing against TR and used candidate chemicals in Tables 2 and 3 to define active rates.
Complete results from both GH3-TRE qHTS agonist, antagonist, and viability mode for the 8,305 compounds are provided in Excel Table S2. […]. […]. Together with some potential false negatives, these chemicals, totaling 84 in all, were screened for activity in a series of assays for confirmation in the GH3-TRE-Ag assay; specificity screening in the TRβ-UAS-bla HEK 293T and RXRα-UAS-bla HEK 293T mammalian one-hybrid assays; viability assays for the HEK293T parental cell line; and orthogonal screening in two TR:coactivator recruitment assays, TRa-coa and TRb-coa. […].

[4] = target: T1, human TRβ ligand-binding domain; assay: TRb-bla agonist mammalian one-hybrid beta-lactamase assay (TOX21_TRB_BLA_Agonist_Followup_ratio, aeid 2236); type: cell-based; parameters: host or cells: GeneBLAzer UAS-bla HEK 293T; conditions: for TRb-bla hitc: hit call from tcpl; for Emax: read-out: EMax (% of Control) trb-bla-agonist-followup-1
human RXRα = target: T2, human RXRα (Homo sapiens, UniProt P19793); assay: RXRa-bla-Ag mammalian one-hybrid beta-lactamase assay (TOX21_TR_RXR_BLA_Agonist_Followup_ratio, aeid 2253); type: cell-based; conditions: for tr-followup-rxr-bla-agonist-1 hitc: hit call from tcpl; for AC50: read-out: tr-followup-rxr-bla-agonist-1 AC50; for Emax: read-out: EMax (% of Control) tr-followup-rxr-bla-agonist-1
T2 construct: host or cells: GeneBLAzer UAS-bla HEK 293T
T2 sequence (P19793 227-458 limits assumed): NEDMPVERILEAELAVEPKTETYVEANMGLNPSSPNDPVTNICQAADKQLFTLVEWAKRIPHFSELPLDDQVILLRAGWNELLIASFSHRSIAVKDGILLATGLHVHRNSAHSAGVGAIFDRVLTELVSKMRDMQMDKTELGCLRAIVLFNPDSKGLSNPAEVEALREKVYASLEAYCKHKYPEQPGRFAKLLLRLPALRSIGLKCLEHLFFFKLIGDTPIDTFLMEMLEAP

[5] = system: Tox21 cell viability assays (different cell types); assay: Global cytotoxicity: eighteen Tox21 cell viability assays; type: cell-based
[6] = target: T3, TRα ligand-binding domain (Homo sapiens, UniProt P10827); assay: TRa-coa LanthaScreen TR-FRET coactivator (SRC-2 peptide) recruitment, agonist (TOX21_TRA_COA_Agonist_Followup_ratio, aeid 2230); type: biochemical; conditions: for TRa-coa hitc: hit call from tcpl; for Emax: read-out: EMax (% of Control) tra-coa-agonist-followup-1
T3 construct: the receptor LBDs expressed as glutathione S-transferase (GST) fusion proteins; purchased

[7] = system: thyroid hormone receptor (endogenous TRα and TRβ); assay: GH3-TRE-Ag-Followup confirmation (TOX21_TR_LUC_GH3_Agonist_Followup, aeid 2226); type: cell-based, rat; conditions: for GH3-TRE-Ag-Followup hitc: hit call from tcpl; for AC50: read-out: GH3-TRE-Ag-Followup AC50
GH3-TRE-Luc cell line = assay: GH3-TRE-Via cell viability, CellTiter-Fluor (TOX21_TR_LUC_GH3_Antagonist_viability, aeid 805); conditions: for TR_LUC_GH3_Antagonist_viability hitc: hit call from tcpl
in vitro = conditions: rat, gh3-tre-luc cells, AC50 (uM) modified / 1000
[8] = agonist, read-out: TRb-coa AC50
[9] = agonist, read-out: TRb-bla AC50
[10] = # active of 18 total Tox21 viability assays
[11] = median over Tox21 viability assays
[12] = agonist, read-out: TRa-coa AC50
[13] = read-out: TR_LUC_GH3_Antagonist_viability AC50

T3 sequence (P10827 163-410 isoform P10827-2 limits assumed, other chains not shown): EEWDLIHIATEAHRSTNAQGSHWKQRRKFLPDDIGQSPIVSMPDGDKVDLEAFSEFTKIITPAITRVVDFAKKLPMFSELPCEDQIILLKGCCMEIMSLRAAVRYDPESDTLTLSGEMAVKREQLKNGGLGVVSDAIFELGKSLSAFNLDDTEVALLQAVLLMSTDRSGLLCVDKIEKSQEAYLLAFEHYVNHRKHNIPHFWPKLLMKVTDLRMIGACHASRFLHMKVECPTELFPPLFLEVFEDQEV

Row | Compound | EMax (% of Control) gh3-tre-agonist [1] | GH3-TRE-Ag AC50 hitc [1] | EMax (% of Control) trb-coa-agonist-followup-1 [2] | AC50 [2, 8] | TRb-coa hitc ([2]; agonist) | Categorization Code [3] | AC50 [4, 9] | TRb-bla hitc ([4]; agonist) | EMax (% of Control) tr-followup-rxr-bla-agonist-1 (human RXRα) | tr-followup-rxr-bla-agonist-1 hitc (human RXRα) | AC50 (human RXRα) | GLOBAL CYTOTOXICITY cytotox.number_Active [5, 10] | GLOBAL CYTOTOXICITY cytotox.median [5, 11] | EMax (% of Control) tra-coa-agonist-followup-1 [6] | AC50 [6, 12] | TRa-coa hitc ([6]; agonist) | EMax (% of Control) gh3-tre-agonist-followup-1_agonist [7] | GH3-TRE-Ag-Followup hitc [7] | TR_LUC_GH3_Antagonist_viability hitc (GH3-TRE-Luc cell line) | AC50 [7] | other results
1 | CC1(C)COP(Oc2ccccc2)OC1 | 30.2 % of Control | 1 | -0.3 % of Control | > 92 µM | 0 | FP | > 92 µM | 0 | 26.5 % of Control | 0 | > 92 µM | 0 | >92 | -1.9 % of Control | > 92 µM | 0 | 5.2 % of Control | 1 | 0 | – | AC50 [1]: 71.3 µM; AC50 (GH3-TRE-Luc cell line; [13]): > 92 µM
2 | Cc1cccc(C)c1[N+](=O)[O-] [1,3-Dimethyl-2-nitrobenzene] | 18.9 % of Control | 1 | – | > 92 µM | 0 | FP | > 92 µM | 0 | – | 0 | > 92 µM | – | – | – | > 92 µM | 0 | 9.2 % of Control | 0 | – | > 92 µM | Emax [2]: -0.3%; Emax [4]: 6.6%; Emax (human RXRα): 11.4%; GLOBAL CYTOTOXICITY cytotox.median [5]: >92; GLOBAL CYTOTOXICITY cytotox.number_Active [5]: 0; CC50 at 24 h (in vitro): > 90 µM; Emax [6]: -0.13%
3 | Cc1ccc(O)cc1 [Cresol] | 51.4 % of Control | 1 | 14.8 % of Control | > 92 µM | 0 | FP | > 92 µM | 0 | 12.6 % of Control | 0 | > 92 µM | – | – | 20.0 % of Control | > 92 µM | 0 | 41.4 % of Control | 1 | 0 | 23.7 µM | EMax (% of Control) trb-bla-agonist-followup-1 [4]: 3.0 % of Control; GLOBAL CYTOTOXICITY cytotox.median [5]: >92; GLOBAL CYTOTOXICITY cytotox.number_Active [5]: 0; AC50 (GH3-TRE-Luc cell line; [13]): > 92 µM
4 | O=C(Cl)OCCOCCOC(=O)Cl [Diethlylene glycol bis chloroformate] | 19.2 % of Control | 1 | – | – | 0 | FP | – | 0 | – | 0 | > 92 µM | 0 | >92 | – | – | 0 | 21.1 % of Control | 0 | 0 | – | AC50 [1]: 5.6 µM; AC50 [2]: > 92 µM; Emax [2]: -0.349%; AC50 [4]: > 92 µM; Emax [4]: 6.2%; Emax (human RXRα): -1.9%; AC50 [6]: > 92 µM; Emax [6]: -0.217%; AC50 (GH3-TRE-Luc cell line; Rattus norvegicus, read-out: TR_LUC_GH3_Antagonist_viability AC50 (uM)): > 92 µM
5 | Cc1occc(=O)c1O [Maltol] | 11.6 % of Control | 1 | – | > 92 µM | 0 | FP | > 92 µM | 0 | – | 0 | > 92 µM | – | >92 | – | > 92 µM | 0 | 2.6 % of Control | 0 | – | > 92 µM | Emax [2]: -0.3%; Emax [4]: 2.7%; Emax (human RXRα): -0.248%; GLOBAL CYTOTOXICITY cytotox.number_Active [5]: 0; CC50 at 24 h (in vitro): > 90 µM; Emax [6]: -0.369%
6 | Cl.NC(CO)(CO)CO [Tromethamine hydrochloride] | 65.8 % of Control | 1 | 14.8 % of Control | – | 0 | FP | 54.4 µM | 1 | 5.9 % of Control | 0 | > 92 µM | 0 | >92 | 70.4 % of Control | 46.6 µM | 1 | 67.8 % of Control | 1 | 0 | 10.3 µM | EMax (% of Control) trb-bla-agonist-followup-1 [4]: 34.3 % of Control; AC50 (GH3-TRE-Luc cell line; [13]): > 92 µM

From PMC6792352, “Limited Chemical Structural Diversity Found to Modulate Thyroid Hormone Receptor in the Tox21 Chemical Library” (Environmental Health Perspectives, 2019)
